Drawing on patent US12516056B2, “Compounds for inhibition of janus kinase 1” (MANKIND PHARMA LTD., priority 2019, dated 2026), this text covers IC50 for 15 molecules.

The test system of assay [1] is STAT5 phosphorylation by GMCSF in TF-1 cells. Briefly: JAK cellular assay: STAT5 phosphorylation by GMCSF in TF-1 cells (HTRF). It counts as cell-based. Particulars: Homo sapiens; TF-1 cells, GMCSF 5 ng/ml, pSTAT5 HTRF; read-out: Cell Based Assay (μM) TF-1/GMCSF/pSTAT5. A digest of the protocol: (§1)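 TF-1 cells starved overnight in low-serum OptiMEM, then 120,000/well in RPMI, preincubated with compound 30 min at 37 °C (0.2% DMSO final). Stimulation 20 min with IL-6 30 ng/ml (pSTAT3) or GMCSF 5 ng/ml (pSTAT5); lysate phospho-STAT by HTRF, unstimulated background subtracted.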
(Time-resolved FRET reads energy transfer from a long-lived donor to a nearby acceptor.)

The next assay concerns the target T1, Recombinant TYK2 (Homo sapiens, UniProt P29597).
T1 construct: purchased Carna Biosciences
Briefly: JAK biochemical assay (LANCE Ultra TR-FRET), TYK2. Particulars: recombinant TYK2, TR-FRET; read-out: Biochemical Assay (μM) TYK2. A digest of the protocol: (§2)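 % inhibition relative to vehicle was derived from TR-FRET signal proportional to ULight-substrate phosphorylation. Reactions used recombinant kinase in HEPES pH 7.5 buffer containing EGTA, MgCl2, DTT and Tween-20.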

A further assay has as its target T2, Recombinant JAK2 (Homo sapiens, UniProt O60674).
T2 construct: purchased Carna Biosciences
Briefly: JAK biochemical assay (LANCE Ultra TR-FRET), JAK2. As to conditions: recombinant JAK2, TR-FRET; read-out: Biochemical Assay (μM) JAK2. A digest of the protocol:
as §2

A further assay concerns the target T3, Recombinant JAK3 (Homo sapiens, UniProt P52333).
T3 construct: purchased Carna Biosciences
T3 sequence (P52333 1-1124): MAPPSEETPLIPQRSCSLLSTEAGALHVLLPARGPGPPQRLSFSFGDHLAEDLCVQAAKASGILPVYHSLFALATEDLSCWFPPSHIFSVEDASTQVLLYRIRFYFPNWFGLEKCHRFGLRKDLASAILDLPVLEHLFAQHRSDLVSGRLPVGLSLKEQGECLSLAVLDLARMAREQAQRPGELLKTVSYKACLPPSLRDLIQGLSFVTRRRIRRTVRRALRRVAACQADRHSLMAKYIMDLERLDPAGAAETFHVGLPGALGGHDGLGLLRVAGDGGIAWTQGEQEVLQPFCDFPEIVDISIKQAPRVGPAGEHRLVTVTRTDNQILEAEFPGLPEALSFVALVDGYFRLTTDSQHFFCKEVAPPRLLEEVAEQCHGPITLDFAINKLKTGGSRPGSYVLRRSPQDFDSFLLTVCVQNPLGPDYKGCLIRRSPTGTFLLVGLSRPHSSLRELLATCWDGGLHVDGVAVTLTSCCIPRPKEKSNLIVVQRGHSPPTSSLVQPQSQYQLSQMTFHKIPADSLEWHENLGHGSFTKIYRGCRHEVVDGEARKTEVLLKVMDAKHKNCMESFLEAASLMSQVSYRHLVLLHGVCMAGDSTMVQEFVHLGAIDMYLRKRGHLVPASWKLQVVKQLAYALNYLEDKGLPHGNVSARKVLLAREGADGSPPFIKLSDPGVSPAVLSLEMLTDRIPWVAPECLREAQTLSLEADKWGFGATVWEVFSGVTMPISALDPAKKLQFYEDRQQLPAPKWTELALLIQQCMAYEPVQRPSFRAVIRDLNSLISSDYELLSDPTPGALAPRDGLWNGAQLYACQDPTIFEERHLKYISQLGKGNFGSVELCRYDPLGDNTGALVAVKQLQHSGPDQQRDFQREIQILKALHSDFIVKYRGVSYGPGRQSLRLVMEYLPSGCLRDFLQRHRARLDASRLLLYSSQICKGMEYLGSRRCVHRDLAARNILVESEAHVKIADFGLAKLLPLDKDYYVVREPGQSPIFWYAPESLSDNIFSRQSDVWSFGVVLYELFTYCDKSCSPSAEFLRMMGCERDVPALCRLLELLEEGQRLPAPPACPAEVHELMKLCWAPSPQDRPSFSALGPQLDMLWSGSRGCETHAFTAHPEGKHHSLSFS
Briefly: JAK biochemical assay (LANCE Ultra TR-FRET), JAK3. Particulars: recombinant JAK3, TR-FRET; read-out: Biochemical Assay (μM) JAK3. A digest of the protocol: as §2

The next assay deals with T4, Recombinant JAK1 (Homo sapiens, UniProt P23458).
T4 construct: purchased Carna Biosciences
T4 sequence (P23458 whole entry): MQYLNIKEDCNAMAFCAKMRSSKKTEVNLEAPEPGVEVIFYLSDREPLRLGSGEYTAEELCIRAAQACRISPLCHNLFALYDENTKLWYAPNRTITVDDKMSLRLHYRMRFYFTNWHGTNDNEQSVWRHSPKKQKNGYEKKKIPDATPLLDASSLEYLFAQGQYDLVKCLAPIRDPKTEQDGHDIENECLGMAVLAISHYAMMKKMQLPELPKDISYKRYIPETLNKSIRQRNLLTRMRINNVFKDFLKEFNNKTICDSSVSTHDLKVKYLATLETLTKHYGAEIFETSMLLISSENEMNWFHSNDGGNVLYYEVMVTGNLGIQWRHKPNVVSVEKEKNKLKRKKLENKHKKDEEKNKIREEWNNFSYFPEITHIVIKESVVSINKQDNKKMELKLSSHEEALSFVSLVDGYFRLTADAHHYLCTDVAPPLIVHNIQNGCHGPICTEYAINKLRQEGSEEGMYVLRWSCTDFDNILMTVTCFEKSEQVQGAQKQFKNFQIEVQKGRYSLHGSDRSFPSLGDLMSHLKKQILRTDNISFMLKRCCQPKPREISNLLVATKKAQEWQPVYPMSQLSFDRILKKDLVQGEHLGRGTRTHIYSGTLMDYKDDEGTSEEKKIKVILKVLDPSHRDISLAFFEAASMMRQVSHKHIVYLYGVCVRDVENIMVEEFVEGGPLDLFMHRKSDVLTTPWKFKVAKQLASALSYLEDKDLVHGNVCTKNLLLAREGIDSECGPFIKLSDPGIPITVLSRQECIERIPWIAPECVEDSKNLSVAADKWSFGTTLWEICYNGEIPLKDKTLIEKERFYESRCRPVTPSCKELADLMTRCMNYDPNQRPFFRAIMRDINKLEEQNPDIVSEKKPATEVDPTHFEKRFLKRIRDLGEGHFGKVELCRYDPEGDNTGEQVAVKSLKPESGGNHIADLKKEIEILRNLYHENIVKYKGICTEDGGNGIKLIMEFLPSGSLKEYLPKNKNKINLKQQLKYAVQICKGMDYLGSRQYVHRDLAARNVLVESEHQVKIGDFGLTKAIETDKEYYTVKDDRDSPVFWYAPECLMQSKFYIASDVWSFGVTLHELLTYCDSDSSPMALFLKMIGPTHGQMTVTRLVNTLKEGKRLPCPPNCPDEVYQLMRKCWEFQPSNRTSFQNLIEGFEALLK
The experiment in a line: JAK biochemical assay (LANCE Ultra TR-FRET), JAK1. As to conditions: recombinant JAK1, TR-FRET; read-out: Biochemical Assay (μM) JAK1. A digest of the protocol:
as §2

Assay [2] deals with STAT3 phosphorylation by IL-6 in TF-1 cells. Briefly: JAK cellular assay: STAT3 phosphorylation by IL-6 in TF-1 cells (HTRF). The assay is classed as cell-based. As to conditions: Homo sapiens, TF-1, TF-1 cells, IL-6 30 ng/ml, pSTAT3 HTRF; read-out: Cell Based Assay (μM) TF-1/IL-6/pSTAT3. A digest of the protocol:
as §1

T1 sequence (P29597 whole entry): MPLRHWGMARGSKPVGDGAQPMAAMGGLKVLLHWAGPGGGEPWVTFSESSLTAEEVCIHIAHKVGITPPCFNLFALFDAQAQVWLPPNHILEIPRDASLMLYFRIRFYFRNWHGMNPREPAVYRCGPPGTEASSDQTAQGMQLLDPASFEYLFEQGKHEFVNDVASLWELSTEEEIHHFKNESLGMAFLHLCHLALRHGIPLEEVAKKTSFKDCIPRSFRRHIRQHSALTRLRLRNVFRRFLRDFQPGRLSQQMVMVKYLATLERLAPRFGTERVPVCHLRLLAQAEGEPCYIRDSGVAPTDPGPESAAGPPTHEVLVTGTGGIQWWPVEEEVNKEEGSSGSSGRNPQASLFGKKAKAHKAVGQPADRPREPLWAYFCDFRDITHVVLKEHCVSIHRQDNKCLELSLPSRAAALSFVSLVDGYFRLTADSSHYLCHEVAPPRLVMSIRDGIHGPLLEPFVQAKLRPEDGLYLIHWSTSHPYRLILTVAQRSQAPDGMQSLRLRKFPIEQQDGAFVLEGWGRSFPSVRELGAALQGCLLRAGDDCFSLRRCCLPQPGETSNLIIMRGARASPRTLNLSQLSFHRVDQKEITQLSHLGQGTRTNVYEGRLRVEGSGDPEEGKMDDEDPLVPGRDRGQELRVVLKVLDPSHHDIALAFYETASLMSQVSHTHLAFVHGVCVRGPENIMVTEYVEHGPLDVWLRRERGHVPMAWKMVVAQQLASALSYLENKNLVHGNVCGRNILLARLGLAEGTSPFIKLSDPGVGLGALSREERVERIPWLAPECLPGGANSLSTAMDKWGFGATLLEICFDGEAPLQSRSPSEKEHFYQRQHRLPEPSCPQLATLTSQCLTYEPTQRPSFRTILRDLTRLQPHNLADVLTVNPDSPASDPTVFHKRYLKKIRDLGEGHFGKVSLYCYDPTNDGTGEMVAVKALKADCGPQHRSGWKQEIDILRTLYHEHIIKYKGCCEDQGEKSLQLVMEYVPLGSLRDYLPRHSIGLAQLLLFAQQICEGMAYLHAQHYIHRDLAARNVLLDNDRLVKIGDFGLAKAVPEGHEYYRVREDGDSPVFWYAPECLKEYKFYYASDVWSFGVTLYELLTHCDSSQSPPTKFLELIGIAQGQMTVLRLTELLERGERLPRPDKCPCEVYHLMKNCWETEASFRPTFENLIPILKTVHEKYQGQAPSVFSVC
T2 sequence (O60674 whole entry): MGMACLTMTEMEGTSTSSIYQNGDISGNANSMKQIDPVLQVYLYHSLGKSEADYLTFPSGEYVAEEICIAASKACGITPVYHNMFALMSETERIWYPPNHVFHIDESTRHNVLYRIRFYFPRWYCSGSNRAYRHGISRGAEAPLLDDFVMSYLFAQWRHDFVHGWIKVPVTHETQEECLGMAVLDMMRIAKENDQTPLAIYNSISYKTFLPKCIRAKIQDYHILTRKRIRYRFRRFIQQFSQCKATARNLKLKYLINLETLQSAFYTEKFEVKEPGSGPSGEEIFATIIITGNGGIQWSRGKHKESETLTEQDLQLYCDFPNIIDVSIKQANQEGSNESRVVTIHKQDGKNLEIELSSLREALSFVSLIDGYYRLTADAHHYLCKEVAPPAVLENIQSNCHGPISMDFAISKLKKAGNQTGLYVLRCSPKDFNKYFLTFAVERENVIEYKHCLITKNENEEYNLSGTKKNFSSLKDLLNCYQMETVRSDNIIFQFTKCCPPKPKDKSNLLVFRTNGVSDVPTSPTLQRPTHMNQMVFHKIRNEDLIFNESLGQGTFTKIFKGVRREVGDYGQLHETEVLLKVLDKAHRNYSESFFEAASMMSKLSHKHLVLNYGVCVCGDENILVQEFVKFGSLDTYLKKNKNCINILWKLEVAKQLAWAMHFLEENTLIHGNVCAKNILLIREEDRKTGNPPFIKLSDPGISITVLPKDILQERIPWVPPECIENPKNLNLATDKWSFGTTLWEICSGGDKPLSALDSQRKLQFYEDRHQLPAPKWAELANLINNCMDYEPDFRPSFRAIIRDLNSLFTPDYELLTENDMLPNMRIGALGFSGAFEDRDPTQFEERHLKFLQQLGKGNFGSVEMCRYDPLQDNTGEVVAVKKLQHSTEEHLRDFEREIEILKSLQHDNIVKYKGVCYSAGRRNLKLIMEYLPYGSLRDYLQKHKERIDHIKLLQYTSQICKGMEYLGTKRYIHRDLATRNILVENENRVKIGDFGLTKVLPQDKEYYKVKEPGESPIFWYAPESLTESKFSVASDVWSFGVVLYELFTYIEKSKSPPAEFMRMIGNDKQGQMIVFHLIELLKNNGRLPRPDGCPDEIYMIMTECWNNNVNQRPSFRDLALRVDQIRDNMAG

As to `O=C(C1CC1)N1CCC(C(O)(c2ccc(-n3cc(-c4ccnc5[nH]cnc45)cn3)nc2)C(F)(F)F)CC1` (stereo not drawn) [Example 1220, (4-(1-(6-(4-(3H-imidazo[4,5-b]pyridin-7-yl)-1H-pyrazol-1-yl)pyridin-3-yl)-2,2,2-trifluoro-1-hydroxyethyl)piperidin-1-yl)(cyclopropyl)methanone], the IC50 in assay [1] was over 1 µM; at Recombinant TYK2 it was over 0.5 µM; at Recombinant JAK2, under 0.1 µM; on Recombinant JAK3, under 0.1 µM; at Recombinant JAK1, under 0.1 µM; in assay [2], over 1 µM.
Consider `N#C[C@H](NC(=O)n1cc(-c2ccnc3[nH]c(=O)[nH]c23)cn1)C1CC1` [Example 1054, N-((R)-cyano(cyclopropyl)methyl)-4-(2,3-dihydro-2-oxo-1H-imidazo[4,5-b]pyridin-7-yl)-1H-pyrazole-1-carboxamide], for which the IC50 in assay [1] was 10 µM; at Recombinant TYK2, over 1 µM; at Recombinant JAK2, over 0.5 µM; at Recombinant JAK3, over 1 µM; on Recombinant JAK1 it was over 10 µM; in assay [2] it was over 1 µM.
Turning to `N#CC1CN(CCC(c2ccc(-n3cc(-c4ccnc5[nH]cnc45)cn3)nc2)C(F)(F)F)C1` (stereo not drawn) [Example 1202, 1-(3-(6-(4-(3H-imidazo[4,5-b]pyridin-7-yl)-1H-pyrazol-1-yl)pyridin-3-yl)-4,4,4-trifluorobutyl)azetidine-3-carbonitrile], the IC50 in assay [1] was over 1 µM; on Recombinant TYK2, over 0.5 µM; on Recombinant JAK2 it was over 0.1 µM; at Recombinant JAK3 it was under 0.1 µM; on Recombinant JAK1, under 0.1 µM; in assay [2], over 0.5 µM.
Regarding `N#CCc1cccc(-n2cc(-c3ccnc4[nH]cnc34)cn2)c1` [Example 1106, 2-(3-(4-(3H-imidazo[4,5-b]pyridin-7-yl)-1H-pyrazol-1-yl)phenyl)acetonitrile], the IC50 in assay [1] was over 10 µM; on Recombinant TYK2 it was over 1 µM; at Recombinant JAK2, under 0.5 µM; at Recombinant JAK3, under 0.5 µM; at Recombinant JAK1, under 0.5 µM; in assay [2] it was over 1 µM.
Consider `N#CCc1csc(-n2cc(-c3ccnc4[nH]cnc34)cn2)n1` [Example 1076, 2-(2-(4-(3H-imidazo[4,5-b]pyridin-7-yl)-1H-pyrazol-1-yl)thiazol-4-yl)acetonitrile], for which the IC50 in assay [1] is over 10 µM; at Recombinant TYK2 it was over 1 µM; at Recombinant JAK2, 0.085 µM; on Recombinant JAK3, under 0.5 µM; on Recombinant JAK1, 0.037 µM; in assay [2], 6 µM.
For `COC(c1ccc(-n2cc(-c3ccnc4[nH]cnc34)cn2)nc1)(C1CC1)C(F)(F)F` (stereo not drawn) [Example 1127, 7-(1-(5-(1-cyclopropyl-2,2,2-trifluoro-1-methoxyethyl)pyridin-2-yl)-1H-pyrazol-4-yl)-3H-imidazo[4,5-b]pyridine], the IC50 is over 10 µM in assay [1]; over 1 µM at Recombinant TYK2; over 1 µM at Recombinant JAK2; over 1 µM on Recombinant JAK3; over 0.5 µM at Recombinant JAK1; over 1 µM in assay [2].
Regarding `c1cc(-c2cnn(-c3ccc(CC4COC4)cn3)c2)c2nc[nH]c2n1` [Example 1081, 7-(1-(5-((oxetan-3-yl)methyl)pyridin-2-yl)-1H-pyrazol-4-yl)-3H-imidazo[4,5-b]pyridine], the IC50 in assay [1] is over 10 µM; on Recombinant TYK2, over 10 µM; on Recombinant JAK2 it was over 0.5 µM; at Recombinant JAK3 it was under 0.5 µM; at Recombinant JAK1, under 0.5 µM; in assay [2] it was over 1 µM.
On to `N#CCc1ccnc(-n2cc(-c3ccnc4[nH]cnc34)cn2)c1` [Example 1118, 2-(2-(4-(3H-imidazo[4,5-b]pyridin-7-yl)-1H-pyrazol-1-yl)pyridin-4-yl)acetonitrile], for which the IC50 in assay [1] was over 10 µM; at Recombinant TYK2, over 1 µM; at Recombinant JAK2, over 0.5 µM; on Recombinant JAK3 it was over 0.5 µM; at Recombinant JAK1 it was over 0.5 µM; in assay [2], over 10 µM.
Take `N#CCc1ccc(-n2cc(-c3ccnc4[nH]cnc34)cn2)cc1` [Example 1099, 2-(4-(4-(3H-imidazo[4,5-b]pyridin-7-yl)-1H-pyrazol-1-yl)phenyl)acetonitrile]: the IC50 in assay [1] is over 10 µM; on Recombinant TYK2, over 1 µM; at Recombinant JAK2, under 0.5 µM; at Recombinant JAK3, under 0.5 µM; at Recombinant JAK1 it was under 0.5 µM; in assay [2], over 1 µM.
Turning to `CC(C)NC(=O)CCC(c1ccc(-n2cc(-c3ccnc4[nH]cnc34)cn2)nc1)C(F)(F)F` (stereo not drawn) [Example 1210, 4-(6-(4-(3H-imidazo[4,5-b]pyridin-7-yl)-1H-pyrazol-1-yl)pyridin-3-yl)-5,5,5-trifluoro-N-isopropylpentanamide], the IC50 in assay [1] was over 1 µM; at Recombinant TYK2, over 1 µM; on Recombinant JAK2, under 0.1 µM; on Recombinant JAK3, under 0.1 µM; on Recombinant JAK1, under 0.1 µM; in assay [2], over 0.75 µM.
On to `O=C(NCC(F)(F)F)n1cc(-c2ccnc3[nH]c(=O)[nH]c23)cn1` [Example 1026, N-(2,2,2-trifluoroethyl)-4-(2,3-dihydro-2-oxo-1H-imidazo[4,5-b]pyridin-7-yl)-1H-pyrazole-1-carboxamide], for which the IC50 is over 10 µM in assay [1]; 0.122 µM on Recombinant TYK2; 0.048 µM at Recombinant JAK2; 0.283 µM at Recombinant JAK3; 0.041 µM at Recombinant JAK1; over 1 µM in assay [2].
As to `OC(c1cccc(-n2cc(-c3ccnc4[nH]cnc34)cn2)n1)C(F)(F)F` (stereo not drawn) [Example 1170, 1-(6-(4-(3H-imidazo[4,5-b]pyridin-7-yl)-1H-pyrazol-1-yl)pyridin-2-yl)-2,2,2-trifluoroethanol], the IC50 in assay [1] was over 10 µM; at Recombinant TYK2, over 1 µM; on Recombinant JAK2 it was over 0.1 µM; at Recombinant JAK3, over 0.05 µM; on Recombinant JAK1, over 0.1 µM; in assay [2] it was over 10 µM.
Consider `CC(C#N)c1ccc(-n2cc(-c3ccnc4[nH]cnc34)cn2)nc1` (stereo not drawn) [Example 1107, 2-(6-(4-(3H-imidazo[4,5-b]pyridin-7-yl)-1H-pyrazol-1-yl)pyridin-3-yl)propanenitrile], for which the IC50 in assay [1] was over 10 µM; at Recombinant TYK2, over 1 µM; on Recombinant JAK2, over 0.1 µM; at Recombinant JAK3, under 0.1 µM; on Recombinant JAK1, under 0.1 µM; in assay [2], over 1 µM.
`CC(C)[C@@H](C#N)NC(=O)n1cc(-c2ccnc3[nH]c(=O)[nH]c23)cn1` [Example 1047, N-((S)-1-cyano-2-methylpropyl)-4-(2,3-dihydro-2-oxo-1H-imidazo[4,5-b]pyridin-7-yl)-1H-pyrazole-1-carboxamide]: the IC50 is 10 µM in assay [1]; under 0.5 µM at Recombinant TYK2; under 0.5 µM at Recombinant JAK2; under 0.5 µM on Recombinant JAK3; under 0.5 µM on Recombinant JAK1; 4.9 µM in assay [2].
On to `CC(C(N)=O)c1ccc(-n2cc(-c3ccnc4[nH]cnc34)cn2)nc1` (stereo not drawn) [Example 1108, 2-(6-(4-(3H-imidazo[4,5-b]pyridin-7-yl)-1H-pyrazol-1-yl)pyridin-3-yl)propanamide], for which the IC50 in assay [1] was over 10 µM; at Recombinant TYK2, over 1 µM; on Recombinant JAK2, over 0.5 µM; at Recombinant JAK3, over 0.1 µM; at Recombinant JAK1, over 0.1 µM; in assay [2], over 10 µM.
